Assays:
Type in all cases: cell-based
AGS cells [1] = assay: VacA-disrupted autophagy in AGS cells (LC3-II immunoblot, LC3 puncta); conditions: for VacA-disrupted autophagy (LC3-II levels): FIG. 13
Protocol: AGS cells incubated with VacA+ or VacA− CCMS for 3 to 4 hrs were then treated with 20 μM ML-SA1 or DMSO (vehicle) for an additional 3 hrs. Cell lysates were prepared and probed for the autophagy marker LC3-II and actin (loading control) (4A, left). Densitometry analysis (LC3-II/actin ratio) of 6 experiments is included on the right. […] Cells treated as indicated above were fixed and stained for LC3-11 (marker of autophagosomes) and cell nuclei (using DAPI). […] One representative image of 7 experiments is shown.
To validate the results obtained with ML-SA1 and confirm that VacA impairs TRPML1 activity, a new recently described TRPML1 agonist, MK6-83, was also evaluated in its ability to restore VacA-disrupted autophagy. To this end, AGS cells incubated with VacA+ or VacA− CCMS for 4 hours were treated with 20 μM ML-SA1, 10 μM MK6-83 or DMSO (vehicle) for additional 3 hour period. Cell lysates were prepared and assessed for LC3-II and actin as loading control. […] This example provides evidence that various TRPML1 agonists of different structures work in the same way by targeting TRPML1 to restore VacA-disrupted autophagy.

AGS cells [2] = assay: Vacuolation and cathepsin D missorting in AGS cells infected with wild-type (VacA+) H. pylori; conditions: treated for 4 hrs
Protocol: A merged image is shown on the left, and the individual stainings corresponding to a higher magnification of the selected areas are included on the right. In the AGS cells infected with VacA− H. pylori mutant, the cathepsin D-filled lysosomes efficiently killed the intracellular bacteria (visualized by DAPI).
To this end, AGS cells infected with wild-type (VacA^+) or VacA^− mutant H. pylori were incubated with the cell-impermeant antibiotic gentamicin to kill extracellular bacteria. Intracellular bacteria were then retrieved and quantified. […] The big vacuoles, depleted of cathepsin D and filled with bacteria observed in the VacA^+ H. pylori infected cells (FIG. 9, inset), were reduced in size and filled with the hydrolytic enzyme after ML-SA1 treatment (FIG. 9, inset). Thus, the reduction in intracellular survival was a consequence of the destruction of the […] H. pylori protective niche (FIG. 8,9).

AGS cells [3] = assay: Cathepsin D cellular levels in VacA+ CCMS treated AGS cells (Western blotting); conditions: 20 μM for 4 hrs after overnight VacA+ CCMS
Protocol: AGS cells were incubated overnight with VacA− or VacA+ CCMS and treated with 20 μM ML-SA1 or DMSO (vehicle) for an additional 4 hrs period prior to lysate preparation. Cathepsin D and actin (loading control) levels were analyzed by Western blotting. […] One representative blot of 5 is shown (top panel). Densitometry analysis of cathepsin D levels (cathepsin D/actin ratio), normalized to the VacA− treated control is shown (bottom panel).
(§1) ML-SA1 administration to VacA^+ treated AGS cells recovered the delivery of cathepsin D to intracellular vacuoles (FIG. 5) and increased cathepsin D cellular levels as detected by immunoblotting (FIG. 6). Importantly, ML-SA1-treated cells also regained the ability to degrade the chromogenic substrate, DQ-BSA (FIG. 7). Altogether, these findings indicate that activation of the TRPML1 channel reverts formation of the VacA-induced non-degradative vacuole.

human gastric organoids = assay: VacA-induced large vacuoles and disrupted autophagy in human gastric organoids; conditions: 16 h VacA+ culture supernatant
Protocol: (11A) 3-dimensional human gastric organoids were treated 16 h with VacA− or VacA+ culture supernatant, then 5 h with vehicle (DMSO) or ML-SA1. One representative Western blot is shown and the corresponding quantification of the rescue in LC3-II by treatment with ML-SA1 from organoids derived from 5 different patients. (B) Representative confocal images taken from human gastric organoid monolayers treated for 16 h with VacA− or VacA+ culture supernatant, then 3 h with vehicle (DMSO) or ML-SA1. VacA-induced large vacuoles were visualized by Lamp1, autophagy by LC3 and nuclei by DAPI. Note large Lamp1 positive rings and LC3 puncta (arrows) in VacA+ DMSO that were rescued in VacA+ ML-SA1.
Organoids are 3-dimensional primary cell cultures that recapitulate the normal stomach physiology. These cultures are derived from stem cells located in the gastric gland that differentiate into complex structures containing the different cell types found in the stomach epithelium. To ensure findings from the cancerous gastric cell line (AGS) held true in a physiological model, organoids were derived from multiple different patients and treated with VacA.

AGS cells [4] = assay: Lysosomal degradative function in VacA+ CCMS treated AGS cells (red DQ-BSA); conditions: 20 μM for 3 hrs after overnight VacA+ CCMS, then red DQ-BSA 4 hrs
Protocol: AGS cells were incubated overnight with VacA− or VacA+ CCMS and treated with 20 μM ML-SA1 or DMSO (vehicle) for an additional 3 hrs period prior to being loaded with red DQ-BSA for an additional 4 hrs. Cells were then fixed and stained with DAPI. Red DQ-BSA is a chromogenic substrate taken up by the cells by endocytosis. The dye generates a fluorescence signal once hydrolyzed in lysosomes. VacA− treated control cells efficiently degrade the substrate resulting in the detection of the fluorescence signal (lysosomal-like white puncta in 7A) whereas in VacA+ treated cells minimal to none fluorescence is detected (7B). […] The experiment was repeated 4 times with similar results.
as §1

AGS cells [5] = assay: VacA-induced missorting of cathepsin D in AGS cells (Lamp1/cathepsin D staining); conditions: 20 μM for 4 hrs after overnight VacA+ CCMS
Protocol: VacA− DMSO treated (control) cells display lysosomes filled with cathepsin D (same puncta obtained by Lamp1 and cathepsin D staining in the top 2 panels) whereas the big vacuoles generated by VacA+ incubation lack cathepsin D (middle panels). […] A higher magnification of a merged Lamp1/cathepsin D image is included on the right. One representative image of 6 experiments is shown.
as §1

AGS cells [6] = assay: VacA-induced vacuolation in AGS cells (Lamp1 staining); conditions: 20 μM for 3 hrs after 3 to 4 hrs VacA+ CCMS
Protocol: AGS cells were incubated with CCMS from wild-type (VacA+) or mutant (VacA−) 60190 H. pylori for 3 to 4 hrs to induce vacuole formation. Cells were then treated with 20 μM of the TRPML1 agonist ML-SA1 or DMSO (vehicle) for an additional 3 hrs period prior to fixation and staining for Lamp1 and cell nuclei. […] Lamp1 staining in these TRPML1 treated cells was indistinguishable from VacA− CCMS control AGS cells. The experiment was repeated 8 times with similar results. One representative experiment is shown.
ML-SA1-treated VacA^+ AGS cells were indistinguishable from VacA^− control cells, displaying Lamp1 staining that resembled normal lysosome size and distribution.

[7] = system: wild-type (VacA+) H. pylori; assay: Intracellular bacteria survival in infected AGS cells (gentamicin, CFU)

SMILES	VacA-disrupted autophagy (LC3-II levels) (AGS cells [1]; 10 μM for 3 hour after 4 hours VacA+ CCMS, AGS cells)	VacA-disrupted autophagy (LC3-II levels) (AGS cells [1]; 20 μM for 3 hour after 4 hours VacA+ CCMS, AGS cells)	autophagy marker LC3-II (LC3-II/actin ratio) (AGS cells [1]; 20 μM for 3 hrs after 3 to 4 hrs VacA+ CCMS, AGS cell lysates, FIG. 4A)	accumulation of dysfunctional autophagosomes (LC3 puncta) (AGS cells [1]; 20 μM for 3 hrs after VacA+ CCMS, AGS cells, staining, FIG. 4B)	size of the vacuoles in VacA+ H. pylori infected cells (AGS cells [2]; Lamp1 staining)	cathepsin D in the vacuoles of VacA+ H. pylori infected cells (AGS cells [2]; cathepsin D staining)	cathepsin D cellular levels (cathepsin D/actin ratio) (AGS cells [3])	VacA-induced large intracellular vacuoles (Lamp1) (human gastric organoids; then 3 h compound, human gastric organoid monolayers)	disrupted autophagy (LC3) (human gastric organoids; then 5 h (3-dimensional organoids, LC3-II blot) or 3 h (monolayers) compound)	lysosomal degradative function (degradation of DQ-BSA) (AGS cells [4])	cathepsin D sorting to lysosomes (AGS cells [5])	VacA-induced vacuolation (Lamp1 staining) (AGS cells [6])	intracellular survival of wild-type (VacA+) H. pylori (CFU) ([7]; 8 hrs infection, 20 μM for the last 3 hrs)	intracellular survival of wild-type (VacA+) H. pylori (CFU) ([7]; 24 hrs infection, 20 μM for the last 4 hrs)
Cc1ccc(S(=O)(=O)Nc2ccccc2N2CCCCC2)s1 [MK6-83]	restored the VacA-disrupted autophagy													
CC1CC(C)(C)N(C(=O)CN2C(=O)c3ccccc3C2=O)c2ccccc21 (centres unmarked) [ML-SA1]		restored the VacA-disrupted autophagy	autophagy was restored	reversed the accumulation of dysfunctional autophagosomes	causes a reduction in the size of the vacuoles	now contain the lysosomal hydrolase cathepsin D	restored cathepsin D levels	large vacuoles were reverted	autophagy was restored	restores the degradative capacity	restores cathepsin D sorting to lysosomes	reversed the vacuolation	reverted the enhanced intracellular survival	reverted the enhanced intracellular survival
